Activity calls are given as the source filed them. No cut-off for these calls is given here.

The target in series [1] is T1, Serine/threonine-protein kinase LATS (Homo sapiens) (UniProt Q9NRM7+O95835). Briefly: Inhibition of LATS in human corneal endothelium cells assessed as induction of cell proliferation measured every 3 hrs for 10 days.
Series [2] addresses T1, Serine/threonine-protein kinase LATS (Homo sapiens). Briefly: Inhibition of LATS in human corneal endothelium cells assessed as induction of cell expansion by measuring cell density at 10 uM by Sytox orange dye based epifluorescence microscopy.
Series [3] concerns Mus musculus. In words: Induction of basal skin cell proliferation in C57BL/6 mouse at 250 ug administered topically twice per day by micrography. In kind it is functional, organism-based.
The test system of series [4] is Mus musculus. In words: Induction of epidermal thickness in C57BL/6 mouse at 250 ug administered topically twice per day by micrography. Format: functional, organism-based.
Series [5] deals with T1, Serine/threonine-protein kinase LATS (Homo sapiens). Briefly: Inhibition of LATS in human limbal epithelial cells assessed as increase in YAP level at 10 uM incubated for 24 hrs by immunostaining based assay. The note with it: Epithelial cell.
For series [6] the target is unchanged. Briefly: Inhibition of LATS in human limbal epithelial cells assessed as induction of limbal stem cell expansion by measuring p63alpha expression at 10 uM measured after 2 weeks by immunohistochemistry. Format: cell-based.
Series [7] shares this target. In words: Inhibition of LATS in human corneal endothelium cells assessed as increase in YAP level at 10 uM incubated for 24 hrs by immunohistochemistry.
Series [8] has the same target. Briefly: Inhibition of LATS in human limbal epithelial cells assessed as induction of limbal stem cell expansion marker expression by measuring ABCG2 protein expression at 10 uM incubated for 8 to 10 days by immunohistochemistry. Format: cell-based.
The target is the same in series [9]. Briefly: Inhibition of LATS in human corneal endothelium cells assessed as reduction in YAP phosphorylation at 10 uM incubated for 1 hr by Western blot analysis.
Series [10] has the same target. Briefly: Inhibition of LATS in human limbal epithelial cells assessed as induction of limbal stem cell expansion marker expression by measuring deltaN-p63-alphabetagamma protein expression at 10 uM incubated for 8 to 10 days by immunohistochemistry. In kind it is cell-based.
The target is the same in series [11]. In words: Inhibition of LATS in human limbal epithelial cells assessed as induction of limbal stem cell expansion by measuring expansion factor ratio at 10 uM measured after 2 weeks by p63alpha expression detection based immunohistochemistry relative to control. On the set-up: scale not given: the % may be the effect or the level left.
Series [12] deals with Mus musculus. Briefly: Inhibition of LATS in C57BL/6 mouse with full-thickness excisional wounds assessed as up-regulation of YAP target gene Cyr61 expression at 0.2 to 2 mg/ml administered topically by RT-PCR analysis. In kind it is functional, organism-based.
Series [13] addresses T1, Serine/threonine-protein kinase LATS (Homo sapiens). In words: Inhibition of LATS in human limbal epithelial cells assessed as induction of limbal stem cell expansion marker expression by measuring C/EBPdelta protein expression at 10 uM incubated for 8 to 10 days by immunohistochemistry. In kind it is cell-based.
Series [14] shares this target. In words: Inhibition of LATS in human limbal epithelial cells assessed as reduction in YAP phosphorylation level at 10 uM incubated for 1 hr by Western blot analysis. Format: cell-based. The note with it: Epithelial cell.
For series [15], the species on record is Oryctolagus cuniculus. In words: Induction of tissue regeneration in NZA rabbit with limbal stem cell deficiency transplanted with 10 uM compound treated human limbal stem cells assessed as induction of limbal stem cell population expansion by human mitochondrial protein expression in corneal epithelium of transplanted eyes using compound attached to contact lens using GelMA polymerization and delivered into corneal surface. Format: functional, organism-based.

For series [16], the species on record is Oryctolagus cuniculus. Briefly: Induction of tissue regeneration in NZA rabbit with limbal stem cell deficiency transplanted with 10 uM compound treated human limbal stem cells assessed as induction of limbal stem cell population expansion by measuring regeneration of keratin-12-positive corneal epithelium using compound attached to contact lens using GelMA polymerization and delivered into corneal surface. In kind it is functional, organism-based.

A short description of series [17]: Total drug level in cell pellets of human limbal stem cells by LC-MS analysis. In kind it is ADME.
Series [18] can be described thus: Drug level in post wash cell pellets of human limbal stem cells by LC-MS analysis. In kind it is ADME.
Series [19] can be described thus: Total drug level in cell pellets of human corneal endothelium cells by LC-MS analysis. In kind it is ADME.
A short description of series [20]: Drug level in cell pellets of human corneal endothelium cells by LC-MS analysis. In kind it is ADME.
Series [21] has as its target T1, Serine/threonine-protein kinase LATS (Homo sapiens). Briefly: Inhibition of LATS in human limbal epithelial cells assessed as induction of cell differentiation into corneal epithelial cells by measuring keratin-12 expression at 10 uM incubated for 8 to 10 days followed by medium change to DMEM medium without serum and compound for further incubation for 4 to 8 days by confocal microscopy. In kind it is cell-based.

In series [22] the test system is Mus musculus. Briefly: Inhibition of LATS in C57BL/6J mouse assessed as change in CTGF mRNA expression level at 10 mg/kg, po administered as single dose measured after 2 hrs by qRT-PCR analysis relative to control. In kind it is functional. Background: Quantitative PCR measures a nucleic acid by following its amplification.
The subject of series [23] is Mus musculus. Briefly: Inhibition of LATS in C57BL/6J mouse assessed as change in Ki67 protein expression level at 10 mg/kg, po administered as single dose measured after 24 hrs by immunohistochemistry analysis relative to control. In kind it is functional.
Series [24] relates to Mus musculus. Briefly: Inhibition of LATS in C57BL/6J mouse assessed as change in Cyr61 mRNA expression level at 10 mg/kg, po administered as single dose measured after 2 hrs by qRT-PCR analysis relative to control. Format: functional.
For series [25], the target named is T1, Serine/threonine-protein kinase LATS (Homo sapiens). In words: Inhibition of LATS in human corneal endothelium cells assessed as induction of cell expansion by measuring AQP1 gene expression at 10 uM incubated for 10 days by RT-PCR analysis.
The target is the same in series [26]. Briefly: Inhibition of LATS in human corneal endothelium cells assessed as induction of normal corneal endothelial cell morphology at 10 uM incubated for 10 days by immunofluorescence staining based confocal microscopy.
The target is the same in series [27]. In words: Inhibition of LATS in human corneal endothelium cells assessed as induction of tight junctions formation by measuring ZO1 expression at 10 uM incubated for 10 days by immunofluorescence staining based confocal microscopy.
Series [28] shares this target. Briefly: Inhibition of LATS in human corneal endothelium cells assessed as induction of cell expansion by measuring Collagen 8a2 protein expression at 10 uM incubated for 10 days by immunohistochemistry.
Series [29] has the same target. In words: Inhibition of LATS in human corneal endothelium cells assessed as induction of cell expansion by measuring Na/K ATPase protein expression at 10 uM incubated for 10 days by immunohistochemistry.
For series [30] the target is unchanged. Briefly: Inhibition of LATS in human corneal endothelium cells assessed as induction of cell expansion by measuring SLC4A11 gene expression at 10 uM incubated for 10 days by RT-PCR analysis.
For series [31] the target is unchanged. In words: Inhibition of LATS in human corneal endothelium cells assessed as induction of cell expansion by measuring Collagen 8a2 gene expression at 10 uM incubated for 10 days by RT-PCR analysis.
The subject of series [32] is Mus musculus. In words: Inhibition of LATS in C57BL/6J mouse assessed as change in Ki67 protein expression level at 30 mg/kg, po administered as single dose measured after 24 hrs by immunohistochemistry analysis relative to control. Format: functional.
In series [33] the test system is Mus musculus. In words: Inhibition of LATS in C57BL/6J mouse assessed as change in CTGF mRNA expression level at 30 mg/kg, po administered as single dose measured after 2 hrs by qRT-PCR analysis relative to control. Format: functional.
Series [34] concerns Mus musculus. In words: Inhibition of LATS in C57BL/6J mouse assessed as change in Cyr61 mRNA expression level at 30 mg/kg, po administered as single dose measured after 2 hrs by qRT-PCR analysis relative to control. In kind it is functional.

T1 sequence (O95835 whole entry, looked up): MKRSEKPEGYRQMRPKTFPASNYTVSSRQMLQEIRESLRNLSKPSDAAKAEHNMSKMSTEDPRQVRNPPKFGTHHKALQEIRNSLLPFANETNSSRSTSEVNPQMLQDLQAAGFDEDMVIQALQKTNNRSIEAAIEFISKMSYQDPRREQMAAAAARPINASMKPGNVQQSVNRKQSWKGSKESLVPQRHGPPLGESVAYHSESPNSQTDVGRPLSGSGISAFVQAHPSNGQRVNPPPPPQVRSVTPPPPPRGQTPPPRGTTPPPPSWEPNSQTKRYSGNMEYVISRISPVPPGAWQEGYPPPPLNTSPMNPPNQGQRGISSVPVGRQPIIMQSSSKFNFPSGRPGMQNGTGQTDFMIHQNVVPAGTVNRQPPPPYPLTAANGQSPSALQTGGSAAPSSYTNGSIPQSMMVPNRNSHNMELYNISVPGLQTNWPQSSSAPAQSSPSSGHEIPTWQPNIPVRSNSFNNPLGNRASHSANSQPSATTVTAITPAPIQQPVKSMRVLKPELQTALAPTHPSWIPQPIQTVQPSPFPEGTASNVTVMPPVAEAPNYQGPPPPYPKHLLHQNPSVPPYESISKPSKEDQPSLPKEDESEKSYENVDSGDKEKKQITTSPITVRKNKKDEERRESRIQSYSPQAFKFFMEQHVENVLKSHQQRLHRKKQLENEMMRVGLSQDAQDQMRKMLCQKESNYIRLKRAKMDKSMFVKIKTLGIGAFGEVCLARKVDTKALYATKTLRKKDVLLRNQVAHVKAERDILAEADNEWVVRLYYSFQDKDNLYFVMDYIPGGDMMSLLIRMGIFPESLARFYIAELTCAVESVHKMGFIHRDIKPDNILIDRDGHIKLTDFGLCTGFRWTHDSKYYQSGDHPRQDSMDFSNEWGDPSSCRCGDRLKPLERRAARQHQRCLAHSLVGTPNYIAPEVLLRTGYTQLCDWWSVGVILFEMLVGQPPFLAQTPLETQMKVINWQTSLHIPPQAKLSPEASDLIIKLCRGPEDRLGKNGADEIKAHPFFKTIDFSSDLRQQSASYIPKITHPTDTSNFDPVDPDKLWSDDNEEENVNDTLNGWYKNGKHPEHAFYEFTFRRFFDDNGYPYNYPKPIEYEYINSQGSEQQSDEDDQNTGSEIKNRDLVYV
T1 sequence (Q9NRM7 whole entry, looked up): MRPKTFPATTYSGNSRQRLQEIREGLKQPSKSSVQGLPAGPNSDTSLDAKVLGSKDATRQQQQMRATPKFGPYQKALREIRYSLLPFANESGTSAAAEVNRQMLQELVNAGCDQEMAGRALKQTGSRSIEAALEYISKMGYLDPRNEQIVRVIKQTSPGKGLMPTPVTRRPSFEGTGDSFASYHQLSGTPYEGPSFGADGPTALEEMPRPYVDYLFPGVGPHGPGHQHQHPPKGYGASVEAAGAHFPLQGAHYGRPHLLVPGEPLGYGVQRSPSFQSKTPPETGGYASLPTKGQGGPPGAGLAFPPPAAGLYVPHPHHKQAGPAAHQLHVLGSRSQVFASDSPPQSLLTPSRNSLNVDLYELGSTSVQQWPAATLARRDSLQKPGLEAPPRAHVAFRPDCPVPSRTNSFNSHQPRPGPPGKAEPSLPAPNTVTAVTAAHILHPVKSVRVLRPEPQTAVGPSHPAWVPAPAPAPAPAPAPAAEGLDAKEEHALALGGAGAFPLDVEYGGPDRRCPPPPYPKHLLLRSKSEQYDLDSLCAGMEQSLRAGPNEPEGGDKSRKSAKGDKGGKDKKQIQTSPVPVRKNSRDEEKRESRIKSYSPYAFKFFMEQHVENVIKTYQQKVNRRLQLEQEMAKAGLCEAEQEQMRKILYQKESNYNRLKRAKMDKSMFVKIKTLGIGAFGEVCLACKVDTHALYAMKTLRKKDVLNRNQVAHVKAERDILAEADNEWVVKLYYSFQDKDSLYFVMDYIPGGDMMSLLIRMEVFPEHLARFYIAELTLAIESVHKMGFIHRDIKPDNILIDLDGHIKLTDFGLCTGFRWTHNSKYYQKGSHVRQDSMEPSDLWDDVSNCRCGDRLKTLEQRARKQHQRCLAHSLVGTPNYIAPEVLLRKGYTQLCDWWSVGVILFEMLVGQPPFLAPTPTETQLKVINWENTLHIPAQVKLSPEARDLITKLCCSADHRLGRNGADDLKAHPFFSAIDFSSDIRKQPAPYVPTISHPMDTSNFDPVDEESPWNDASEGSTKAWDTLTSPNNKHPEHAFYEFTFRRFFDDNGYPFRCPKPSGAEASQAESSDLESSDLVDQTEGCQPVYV

On to `Cc1n[nH]cc1-c1nc(NC2(C)CC2)c2ccncc2n1`, for which the inhibition entry in [1], in series [5], in series [6], in [7], in [8] and in series [9] was “Active” throughout. Moreover, the inhibition result in series [10], in series [13] and in [14] was “Active” in each case. Besides, the figures for the Activity in series [2] and in series [11] were 2030 /mm2 and 57 to 97%, respectively. For the same molecule, the outcome in series [3] and in [4] was Active. Further, the inhibition result in series [12] was “Dose-dependent effect”.

As to `CC(C)(O)COCC(C)(C)Nc1nc(-c2ccncc2)nc2cnccc12`, the result in series [15] and in series [16] was Active. In addition, the Drug uptake is 178 pg in series [17] and 7.32 to 14.4 nM in series [18].

Turning to `C[C@H](N(C)c1nc(-c2ccncc2)nc2cnccc12)C(F)(F)F`, the values for the Drug uptake in series [17], in series [19] and in series [20] were 340 pg, 0.75 pg and 0.004 to 0.071 nM, respectively.

On to `CC(C)(C)Nc1cc(-c2ccncc2)nc2cnccc12`, for which the inhibition entry in series [21] is “Active”. Also, the Activity in series [2] is 4310 /mm2; in series [11], 57 to 97%. In addition, the “fold change (FC)” value in series [22] was 2.5; in series [23] it was 3.1; in series [24], 3.9. The Drug uptake was 83 pg in series [17] and 0.315 to 11 nM in [18].

Consider `CC(C)(O)CC(C)(C)Nc1nc(-c2ccncc2)nc2cnccc12`, for which the inhibition entry in series [21], in series [25], in series [26], in series [1], in series [27] and in series [28] was “Active” throughout. Moreover, the inhibition result in series [29], in [5], in series [6], in [30], in [7] and in [8] was “Active” throughout. Further, the inhibition entry in series [31], in [9], in series [10], in [13] and in series [14] was “Active” each time. The Activity was 3870 /mm2 in series [2] and 57 to 97% in series [11].

For `c1cc(-c2nc(NCCCc3nnn[nH]3)c3ccncc3n2)ccn1`, the figures for the “fold change (FC)” value in series [32], in series [33] and in series [34] were 3.3, 2.1 and 3.5, respectively.

These data come from ChEMBL document CHEMBL4420070, “6-6 Fused Bicyclic Heteroaryl Compounds and their Use as LATS Inhibitors” (2018).
